Source: ChEMBL document CHEMBL3885881, “DrugMatrix”

Species on record: Rattus norvegicus
Experiment: DrugMatrix - Regimen: Daily Repeat
Format: toxicity, organism-based, Sprague-Dawley
Set-up: regimen Daily Repeat, gender Male, age 6-8 weeks
Details: in vivo, po, route oral GAVAGE, vehicle .5 % CMC; for BASOPHIL / EOSINOPHIL / ERYTHROCYTE COUNT / HEMATOCRIT / HEMOGLOBIN / LEUKOCYTE COUNT / LYMPHOCYTE / MEAN CORPUSCULAR HEMOGLOBIN / MEAN CORPUSCULAR HEMOGLOBIN CONCENTRATION / MEAN CORPUSCULAR VOLUME / MONOCYTE / NEUTROPHIL / PLATELET COUNT: tissue Blood; for ALANINE AMINOTRANSFERASE / ALKALINE PHOSPHATASE / ASPARTATE AMINOTRANSFERASE / BLOOD UREA NITROGEN / CHLORIDE / CHOLESTEROL / CREATINE PHOSPHOKINASE / CREATININE / GLUCOSE / PHOSPHORUS / POTASSIUM / SODIUM / TOTAL BILIRUBIN / TOTAL PROTEIN: tissue Plasma
[1] = 0 mg/kg, 72 h, dose level Control, time 3 day
[2] = 0 mg/kg, 120 h, dose level Control, time 5 day
[3] = 20 mg/kg, 72 h, dose level Low, time 3 day
[4] = 20 mg/kg, 120 h, dose level Low, time 5 day
[5] = 95 mg/kg, 72 h, dose level High, time 3 day
[6] = 95 mg/kg, 120 h, dose level High, time 5 day

CN1CCN(C2=Nc3cc(Cl)ccc3Nc3ccccc32)CC1 [CLOZAPINE]
BASOPHIL [1]: 0%
EOSINOPHIL [1]: 0.33%
ERYTHROCYTE COUNT [1]: 6.2 x10E6/uL
HEMATOCRIT [1]: 38.08%
HEMOGLOBIN [1]: 14.92 G/DL
LEUKOCYTE COUNT [1]: 11.13 x10E3/uL
LYMPHOCYTE [1]: 76%
MEAN CORPUSCULAR HEMOGLOBIN [1]: 24.1 pg
MEAN CORPUSCULAR HEMOGLOBIN CONCENTRATION [1]: 39.17 G/DL
MEAN CORPUSCULAR VOLUME [1]: 61.48 fL
MONOCYTE [1]: 3.83%
NEUTROPHIL [1]: 19.83%
PLATELET COUNT [1]: 1327.5 x10E3/uL
ALANINE AMINOTRANSFERASE [1]: 40.17 u/L
ALKALINE PHOSPHATASE [1]: 372 u/L
ASPARTATE AMINOTRANSFERASE [1]: 67.17 u/L
BLOOD UREA NITROGEN [1]: 18.83 mg/dL
CHLORIDE [1]: 105.17 MEQ/L
CHOLESTEROL [1]: 78.17 mg/dL
CREATINE PHOSPHOKINASE [1]: 149.17 u/L
CREATININE [1]: 0.57 mg/dL
GLUCOSE [1]: 185.17 mg/dL
PHOSPHORUS [1]: 11.43 mg/dL
POTASSIUM [1]: 6.78 MEQ/L
SODIUM [1]: 152.83 MEQ/L
TOTAL BILIRUBIN [1]: 0.4 mg/dL
TOTAL PROTEIN [1]: 6.87 G/DL
BASOPHIL [2]: 0%
EOSINOPHIL [2]: 0%
ERYTHROCYTE COUNT [2]: 6.05 x10E6/uL
HEMATOCRIT [2]: 36.55%
HEMOGLOBIN [2]: 14.7 G/DL
LEUKOCYTE COUNT [2]: 11.8 x10E3/uL
LYMPHOCYTE [2]: 86.83%
MEAN CORPUSCULAR HEMOGLOBIN [2]: 24.37 pg
MEAN CORPUSCULAR HEMOGLOBIN CONCENTRATION [2]: 40.32 G/DL
MEAN CORPUSCULAR VOLUME [2]: 60.47 fL
MONOCYTE [2]: 0.83%
NEUTROPHIL [2]: 12.33%
PLATELET COUNT [2]: 1177 x10E3/uL
ALANINE AMINOTRANSFERASE [2]: 41.83 u/L
ALKALINE PHOSPHATASE [2]: 377.5 u/L
ASPARTATE AMINOTRANSFERASE [2]: 60.83 u/L
BLOOD UREA NITROGEN [2]: 16 mg/dL
CHLORIDE [2]: 105.67 MEQ/L
CHOLESTEROL [2]: 67.83 mg/dL
CREATINE PHOSPHOKINASE [2]: 120.33 u/L
CREATININE [2]: 0.6 mg/dL
GLUCOSE [2]: 167.67 mg/dL
PHOSPHORUS [2]: 10.03 mg/dL
POTASSIUM [2]: 6.68 MEQ/L
SODIUM [2]: 150.5 MEQ/L
TOTAL BILIRUBIN [2]: 0.57 mg/dL
TOTAL PROTEIN [2]: 6.25 G/DL
BASOPHIL [3]: 0%
EOSINOPHIL [3]: 0.5%
ERYTHROCYTE COUNT [3]: 5.3 x10E6/uL
HEMATOCRIT [3]: 33.4%
HEMOGLOBIN [3]: 12.8 G/DL
LEUKOCYTE COUNT [3]: 10.25 x10E3/uL
LYMPHOCYTE [3]: 83.5%
MEAN CORPUSCULAR HEMOGLOBIN [3]: 24.2 pg
MEAN CORPUSCULAR HEMOGLOBIN CONCENTRATION [3]: 38.35 G/DL
MEAN CORPUSCULAR VOLUME [3]: 62.95 fL
MONOCYTE [3]: 0%
NEUTROPHIL [3]: 16%
PLATELET COUNT [3]: 1071.5 x10E3/uL
ALANINE AMINOTRANSFERASE [3]: 33.33 u/L
ALKALINE PHOSPHATASE [3]: 312 u/L
ASPARTATE AMINOTRANSFERASE [3]: 54 u/L
BLOOD UREA NITROGEN [3]: 13.33 mg/dL
CHLORIDE [3]: 104.33 MEQ/L
CHOLESTEROL [3]: 84.67 mg/dL
CREATINE PHOSPHOKINASE [3]: 145.33 u/L
CREATININE [3]: 0.57 mg/dL
GLUCOSE [3]: 148.67 mg/dL
PHOSPHORUS [3]: 11.43 mg/dL
POTASSIUM [3]: 6.5 MEQ/L
SODIUM [3]: 149 MEQ/L
TOTAL BILIRUBIN [3]: 0.3 mg/dL
TOTAL PROTEIN [3]: 5.9 G/DL
BASOPHIL [4]: 0%
EOSINOPHIL [4]: 0%
ERYTHROCYTE COUNT [4]: 6.24 x10E6/uL
HEMATOCRIT [4]: 37.73%
HEMOGLOBIN [4]: 14.93 G/DL
LEUKOCYTE COUNT [4]: 15.97 x10E3/uL
LYMPHOCYTE [4]: 93.67%
MEAN CORPUSCULAR HEMOGLOBIN [4]: 23.97 pg
MEAN CORPUSCULAR HEMOGLOBIN CONCENTRATION [4]: 39.57 G/DL
MEAN CORPUSCULAR VOLUME [4]: 60.57 fL
MONOCYTE [4]: 1.33%
NEUTROPHIL [4]: 5%
PLATELET COUNT [4]: 1152.67 x10E3/uL
ALANINE AMINOTRANSFERASE [4]: 36.67 u/L
ALKALINE PHOSPHATASE [4]: 370 u/L
ASPARTATE AMINOTRANSFERASE [4]: 55.67 u/L
BLOOD UREA NITROGEN [4]: 13 mg/dL
CHLORIDE [4]: 106 MEQ/L
CHOLESTEROL [4]: 72.33 mg/dL
CREATINE PHOSPHOKINASE [4]: 147.67 u/L
CREATININE [4]: 0.57 mg/dL
GLUCOSE [4]: 152.33 mg/dL
PHOSPHORUS [4]: 11.4 mg/dL
POTASSIUM [4]: 6.5 MEQ/L
SODIUM [4]: 149 MEQ/L
TOTAL BILIRUBIN [4]: 0.3 mg/dL
TOTAL PROTEIN [4]: 5.87 G/DL
BASOPHIL [5]: 0%
EOSINOPHIL [5]: 0.33%
ERYTHROCYTE COUNT [5]: 6.22 x10E6/uL
HEMATOCRIT [5]: 37.83%
HEMOGLOBIN [5]: 14.53 G/DL
LEUKOCYTE COUNT [5]: 10.53 x10E3/uL
LYMPHOCYTE [5]: 81.33%
MEAN CORPUSCULAR HEMOGLOBIN [5]: 23.4 pg
MEAN CORPUSCULAR HEMOGLOBIN CONCENTRATION [5]: 38.43 G/DL
MEAN CORPUSCULAR VOLUME [5]: 60.87 fL
MONOCYTE [5]: 1%
NEUTROPHIL [5]: 17.33%
PLATELET COUNT [5]: 1046 x10E3/uL
ALANINE AMINOTRANSFERASE [5]: 43.67 u/L
ALKALINE PHOSPHATASE [5]: 361.33 u/L
ASPARTATE AMINOTRANSFERASE [5]: 61.67 u/L
BLOOD UREA NITROGEN [5]: 16.33 mg/dL
CHLORIDE [5]: 108 MEQ/L
CHOLESTEROL [5]: 85.33 mg/dL
CREATINE PHOSPHOKINASE [5]: 131.33 u/L
CREATININE [5]: 0.57 mg/dL
GLUCOSE [5]: 153.33 mg/dL
PHOSPHORUS [5]: 11.9 mg/dL
POTASSIUM [5]: 7.33 MEQ/L
SODIUM [5]: 154.33 MEQ/L
TOTAL BILIRUBIN [5]: 0.27 mg/dL
TOTAL PROTEIN [5]: 6.13 G/DL
BASOPHIL [6]: 0%
EOSINOPHIL [6]: 0.67%
ERYTHROCYTE COUNT [6]: 6.78 x10E6/uL
HEMATOCRIT [6]: 41.33%
HEMOGLOBIN [6]: 16.27 G/DL
LEUKOCYTE COUNT [6]: 12.7 x10E3/uL
LYMPHOCYTE [6]: 89.67%
MEAN CORPUSCULAR HEMOGLOBIN [6]: 24.13 pg
MEAN CORPUSCULAR HEMOGLOBIN CONCENTRATION [6]: 39.43 G/DL
MEAN CORPUSCULAR VOLUME [6]: 61.1 fL
MONOCYTE [6]: 0.33%
NEUTROPHIL [6]: 9.33%
PLATELET COUNT [6]: 1299 x10E3/uL
ALANINE AMINOTRANSFERASE [6]: 60.33 u/L
ALKALINE PHOSPHATASE [6]: 306.67 u/L
ASPARTATE AMINOTRANSFERASE [6]: 59.67 u/L
BLOOD UREA NITROGEN [6]: 14.67 mg/dL
CHLORIDE [6]: 107 MEQ/L
CHOLESTEROL [6]: 96.67 mg/dL
CREATINE PHOSPHOKINASE [6]: 136 u/L
CREATININE [6]: 0.5 mg/dL
GLUCOSE [6]: 158 mg/dL
PHOSPHORUS [6]: 11.83 mg/dL
POTASSIUM [6]: 6.7 MEQ/L
SODIUM [6]: 155.67 MEQ/L
TOTAL BILIRUBIN [6]: 0.2 mg/dL
TOTAL PROTEIN [6]: 6.6 G/DL
